The text below walks through data of PMC10553834, “Differentiating the roles of Mycobacterium tuberculosis substrate binding proteins, FecB and FecB2, in iron uptake” (PLOS Pathogens, 2023).

This assay has as its target FecB E339S (Mycobacterium tuberculosis, UniProt O53291, E339S). The format is binding.

In turn, carboxymycobactin [apo-cMB] registered a Fold-decrease of around 1.7 and a Kd of 4.8 ± 0.3 µM.

For orientation: Kd means the equilibrium constant for the complex coming apart. Lower therefore signals tighter binding.
